Measured values taken from ChEMBL document CHEMBL4393691, “Design, synthesis and antitumor evaluation of novel celastrol derivatives” (Eur J Med Chem, 2019).
The source made the active and inactive calls. No cut-off for these calls is given here.

Legend:
MCF7 [1] = assay: Antiproliferative activity against human MCF7 cells assessed as reduction in cell viability at 1 uM incubated for 48 hrs by MTT assay relative to control; assay type: functional; conditions: MCF7, 48 h
HepG2 = assay: Cytotoxicity against human HepG2 cells assessed as reduction in cell viability incubated for 48 hrs by MTT assay; assay type: functional, cell-based; conditions: HepG2, 48 h
A549 [2] = assay: cells; conditions: Homo sapiens, A549, 48 h
MCF7 [3] = assay: cells; conditions: Homo sapiens, MCF7, 48 h
A549 [4] = assay: Inhibition of Hsp90-Cdc37 interaction in human A549 cells assessed as decrease in Cdc37 protein level at 5 uM incubated for 6 hrs by immunoprecipitation assay; assay type: cell-based
A549 [5] = assay: Induction of apoptosis in human A549 cells assessed as viable cells at 2 uM incubated for 24 hrs by AnnexinV-FITC/propidium iodide staining-based flow cytometric analysis (reference value: 88.1%); assay type: functional; conditions: A549, 24 h, read-out: Activity
A549 [6] = assay: Induction of apoptosis in human A549 cells assessed as early apoptotic cells at 2 uM incubated for 24 hrs by AnnexinV-FITC/propidium iodide staining-based flow cytometric analysis (reference value: 4.1%); assay type: functional
A549 [7] = assay: Induction of apoptosis in human A549 cells assessed as late apoptotic cells at 2 uM incubated for 24 hrs by AnnexinV-FITC/propidium iodide staining-based flow cytometric analysis (reference value: 4.2%); assay type: functional
A549 [8] = assay: Induction of apoptosis in human A549 cells assessed as necrotic cells at 2 uM incubated for 24 hrs by AnnexinV-FITC/propidium iodide staining-based flow cytometric analysis (reference value: 3.6%); assay type: functional

COC(=O)/C=C/c1ccc(OCCCOC(=O)[C@]2(C)CC[C@]3(C)CC[C@]4(C)C5=CC=C6C(=CC(=O)C(O)=C6C)[C@]5(C)CC[C@@]4(C)[C@@H]3C2)c(OC)c1
inhibition at 1 µM (MCF7 [1]): 78.5%
IC50 (HepG2): 0.53 µM
IC50 (A549 [2]): 0.56 µM
IC50 (MCF7 [3]): 0.45 µM

COC(=O)[C@]12CCC(C)(C)C[C@H]1[C@H]1C(=O)C=C3[C@@]4(C)C=C(C#N)C(=O)C(C)(C)[C@@H]4CC[C@@]3(C)[C@]1(C)CC2 [BARDOXOLONE METHYL]
IC50 (HepG2): 0.26 µM
IC50 (A549 [2]): 0.36 µM
IC50 (MCF7 [3]): 0.35 µM

COC(=O)/C=C\c1ccc(OC)c(OC/C=C/COC(=O)[C@]2(C)CC[C@]3(C)CC[C@]4(C)C5=CC=C6C(=CC(=O)C(O)=C6C)[C@]5(C)CC[C@@]4(C)[C@@H]3C2)c1
inhibition at 1 µM (MCF7 [1]): 49.2%

COC(=O)/C=C/c1ccc(OCCCOC(=O)[C@]2(C)CC[C@]3(C)CC[C@]4(C)C5=CC=C6C(=CC(=O)C(O)=C6C)[C@]5(C)CC[C@@]4(C)[C@@H]3C2)cc1
inhibition at 1 µM (MCF7 [1]): 50.5%

COC(=O)/C(C#N)=C/c1ccc(OCCCOC(=O)[C@]2(C)CC[C@]3(C)CC[C@]4(C)C5=CC=C6C(=CC(=O)C(O)=C6C)[C@]5(C)CC[C@@]4(C)[C@@H]3C2)c(C)c1
inhibition at 1 µM (MCF7 [1]): 21.9%

COC(=O)/C(C#N)=C/c1ccc(OCCCOC(=O)[C@]2(C)CC[C@]3(C)CC[C@]4(C)C5=CC=C6C(=CC(=O)C(O)=C6C)[C@]5(C)CC[C@@]4(C)[C@@H]3C2)c(OC)c1
inhibition at 1 µM (MCF7 [1]): 66.5%
IC50 (HepG2): 0.75 µM
IC50 (A549 [2]): 0.66 µM
IC50 (MCF7 [3]): 0.65 µM

COC(=O)/C(C#N)=C/c1ccc(OCCCOC(=O)[C@]2(C)CC[C@]3(C)CC[C@]4(C)C5=CC=C6C(=CC(=O)C(O)=C6C)[C@]5(C)CC[C@@]4(C)[C@@H]3C2)c(F)c1
inhibition at 1 µM (MCF7 [1]): 18.8%

COC(=O)/C(C#N)=C/c1ccc(OCCCCOC(=O)[C@]2(C)CC[C@]3(C)CC[C@]4(C)C5=CC=C6C(=CC(=O)C(O)=C6C)[C@]5(C)CC[C@@]4(C)[C@@H]3C2)c(OC)c1
inhibition at 1 µM (MCF7 [1]): 13.8%

COC(=O)/C=C/c1ccc(OCCOC(=O)[C@]2(C)CC[C@]3(C)CC[C@]4(C)C5=CC=C6C(=CC(=O)C(O)=C6C)[C@]5(C)CC[C@@]4(C)[C@@H]3C2)cc1
inhibition at 1 µM (MCF7 [1]): 63.9%
IC50 (HepG2): 0.6 µM
IC50 (A549 [2]): 0.6 µM
IC50 (MCF7 [3]): 0.67 µM

COC(=O)/C(C#N)=C/c1ccc(OCCOC(=O)[C@]2(C)CC[C@]3(C)CC[C@]4(C)C5=CC=C6C(=CC(=O)C(O)=C6C)[C@]5(C)CC[C@@]4(C)[C@@H]3C2)c(OC)c1
inhibition at 1 µM (MCF7 [1]): 59.9%

COC(=O)/C=C/c1cc(OC)c(OCCCOC(=O)[C@]2(C)CC[C@]3(C)CC[C@]4(C)C5=CC=C6C(=CC(=O)C(O)=C6C)[C@]5(C)CC[C@@]4(C)[C@@H]3C2)c(OC)c1
inhibition at 1 µM (MCF7 [1]): 8.61%

COC(=O)/C(C#N)=C/c1ccc(OCCCOC(=O)[C@]2(C)CC[C@]3(C)CC[C@]4(C)C5=CC=C6C(=CC(=O)C(O)=C6C)[C@]5(C)CC[C@@]4(C)[C@@H]3C2)cc1F
inhibition at 1 µM (MCF7 [1]): 8.36%

COC(=O)/C=C/c1ccc(OCCCCOC(=O)[C@]2(C)CC[C@]3(C)CC[C@]4(C)C5=CC=C6C(=CC(=O)C(O)=C6C)[C@]5(C)CC[C@@]4(C)[C@@H]3C2)c(OC)c1
inhibition at 1 µM (MCF7 [1]): 15.9%

COC(=O)/C=C/c1cc(OC)c(OC/C=C/COC(=O)[C@]2(C)CC[C@]3(C)CC[C@]4(C)C5=CC=C6C(=CC(=O)C(O)=C6C)[C@]5(C)CC[C@@]4(C)[C@@H]3C2)c(OC)c1
inhibition at 1 µM (MCF7 [1]): 18%

COC(=O)/C=C\c1ccc(OC)c(OCCCOC(=O)[C@]2(C)CC[C@]3(C)CC[C@]4(C)C5=CC=C6C(=CC(=O)C(O)=C6C)[C@]5(C)CC[C@@]4(C)[C@@H]3C2)c1
inhibition at 1 µM (MCF7 [1]): 67.4%
IC50 (HepG2): 0.65 µM
IC50 (A549 [2]): 0.7 µM
IC50 (MCF7 [3]): 0.67 µM

COC(=O)/C(C#N)=C/c1ccc(OCCCOC(=O)[C@]2(C)CC[C@]3(C)CC[C@]4(C)C5=CC=C6C(=CC(=O)C(O)=C6C)[C@]5(C)CC[C@@]4(C)[C@@H]3C2)cc1
inhibition at 1 µM (MCF7 [1]): 22.1%

COC(=O)/C(C#N)=C/c1ccc(OC/C=C/COC(=O)[C@]2(C)CC[C@]3(C)CC[C@]4(C)C5=CC=C6C(=CC(=O)C(O)=C6C)[C@]5(C)CC[C@@]4(C)[C@@H]3C2)c(OC)c1
inhibition at 1 µM (MCF7 [1]): 25.7%

COC(=O)/C=C/c1cc(OC)c(OCCCCOC(=O)[C@]2(C)CC[C@]3(C)CC[C@]4(C)C5=CC=C6C(=CC(=O)C(O)=C6C)[C@]5(C)CC[C@@]4(C)[C@@H]3C2)c(OC)c1
inhibition at 1 µM (MCF7 [1]): 7.52%

COC(=O)/C(C#N)=C\c1ccc(OC)c(OC/C=C/COC(=O)[C@]2(C)CC[C@]3(C)CC[C@]4(C)C5=CC=C6C(=CC(=O)C(O)=C6C)[C@]5(C)CC[C@@]4(C)[C@@H]3C2)c1
inhibition at 1 µM (MCF7 [1]): 45.6%

COC(=O)/C=C/c1cc(OC)c(OCCOC(=O)[C@]2(C)CC[C@]3(C)CC[C@]4(C)C5=CC=C6C(=CC(=O)C(O)=C6C)[C@]5(C)CC[C@@]4(C)[C@@H]3C2)c(OC)c1
inhibition at 1 µM (MCF7 [1]): 60.3%
IC50 (HepG2): 0.89 µM
IC50 (A549 [2]): 1.07 µM
IC50 (MCF7 [3]): 0.88 µM

COC(=O)/C(C#N)=C\c1cccc(OCCCOC(=O)[C@]2(C)CC[C@]3(C)CC[C@]4(C)C5=CC=C6C(=CC(=O)C(O)=C6C)[C@]5(C)CC[C@@]4(C)[C@@H]3C2)c1
inhibition at 1 µM (MCF7 [1]): 47%

COC(=O)/C(C#N)=C\c1ccc(OC)c(OCCCCOC(=O)[C@]2(C)CC[C@]3(C)CC[C@]4(C)C5=CC=C6C(=CC(=O)C(O)=C6C)[C@]5(C)CC[C@@]4(C)[C@@H]3C2)c1
inhibition at 1 µM (MCF7 [1]): 27.4%

COC(=O)/C(C#N)=C\c1ccc(OC)c(OCCCOC(=O)[C@]2(C)CC[C@]3(C)CC[C@]4(C)C5=CC=C6C(=CC(=O)C(O)=C6C)[C@]5(C)CC[C@@]4(C)[C@@H]3C2)c1
inhibition at 1 µM (MCF7 [1]): 65.9%
IC50 (HepG2): 0.71 µM
IC50 (A549 [2]): 0.78 µM
IC50 (MCF7 [3]): 0.64 µM

COC(=O)/C=C/c1ccc(OCCOC(=O)[C@]2(C)CC[C@]3(C)CC[C@]4(C)C5=CC=C6C(=CC(=O)C(O)=C6C)[C@]5(C)CC[C@@]4(C)[C@@H]3C2)c(OC)c1
inhibition at 1 µM (MCF7 [1]): 27.7%

COC(=O)/C=C\c1ccc(OC)c(OCCCCOC(=O)[C@]2(C)CC[C@]3(C)CC[C@]4(C)C5=CC=C6C(=CC(=O)C(O)=C6C)[C@]5(C)CC[C@@]4(C)[C@@H]3C2)c1
inhibition at 1 µM (MCF7 [1]): 40.1%

COC(=O)/C=C/c1ccc(OCCCCOC(=O)[C@]2(C)CC[C@]3(C)CC[C@]4(C)C5=CC=C6C(=CC(=O)C(O)=C6C)[C@]5(C)CC[C@@]4(C)[C@@H]3C2)cc1
inhibition at 1 µM (MCF7 [1]): 0.94%

CC1=C(O)C(=O)C=C2C1=CC=C1[C@@]2(C)CC[C@@]2(C)[C@@H]3C[C@](C)(C(=O)O)CC[C@]3(C)CC[C@]12C [CELASTROL]
inhibition at 1 µM (MCF7 [1]): 60.2%
IC50 (HepG2): 1.33 µM
inhibition (A549 [4]): Active
viability at 2 µM (A549 [5]): 64.1%
Activity (A549 [6]): 14.9%
Activity (A549 [7]): 16.1%
Activity (A549 [8]): 4.8%
IC50 (A549 [2]): 1.28 µM
IC50 (MCF7 [3]): 1.06 µM

COC(=O)/C=C/c1ccc(OC/C=C/COC(=O)[C@]2(C)CC[C@]3(C)CC[C@]4(C)C5=CC=C6C(=CC(=O)C(O)=C6C)[C@]5(C)CC[C@@]4(C)[C@@H]3C2)cc1
inhibition at 1 µM (MCF7 [1]): 5.29%

COC(=O)/C(C#N)=C/c1ccc(OCCCOC(=O)[C@]2(C)CC[C@]3(C)CC[C@]4(C)C5=CC=C6C(=CC(=O)C(O)=C6C)[C@]5(C)CC[C@@]4(C)[C@@H]3C2)cc1OC
inhibition at 1 µM (MCF7 [1]): 11%

COC(=O)/C(C#N)=C\c1ccc(OC)c(OCCOC(=O)[C@]2(C)CC[C@]3(C)CC[C@]4(C)C5=CC=C6C(=CC(=O)C(O)=C6C)[C@]5(C)CC[C@@]4(C)[C@@H]3C2)c1
inhibition at 1 µM (MCF7 [1]): 79.7%
IC50 (HepG2): 0.37 µM
IC50 (A549 [2]): 0.46 µM
IC50 (MCF7 [3]): 0.3 µM

COC(=O)/C=C\c1cccc(OCCCOC(=O)[C@]2(C)CC[C@]3(C)CC[C@]4(C)C5=CC=C6C(=CC(=O)C(O)=C6C)[C@]5(C)CC[C@@]4(C)[C@@H]3C2)c1
inhibition at 1 µM (MCF7 [1]): 33%

COC(=O)/C=C/c1ccc(OC/C=C/COC(=O)[C@]2(C)CC[C@]3(C)CC[C@]4(C)C5=CC=C6C(=CC(=O)C(O)=C6C)[C@]5(C)CC[C@@]4(C)[C@@H]3C2)c(OC)c1
inhibition at 1 µM (MCF7 [1]): 32.5%

COC(=O)/C(C#N)=C/c1ccc(OCCCOC(=O)[C@]2(C)CC[C@]3(C)CC[C@]4(C)C5=CC=C6C(=CC(=O)C(O)=C6C)[C@]5(C)CC[C@@]4(C)[C@@H]3C2)cc1C
inhibition at 1 µM (MCF7 [1]): 19.8%
